Experimental data as given in US20070128217A1 (priority 2003, published 2007).

Columns and labels:
[1] = test system: antibodies in sera from SARS patients (sera 1a, 1b, 2, 6, 37, 62, London, SARS-yellow, SARS-green); format: binding, human; set-up: Binding of serum 6 to linear peptides of protein X1 of SARS-CoV Urbani / Binding of serum 37 to linear peptides of protein X1 of SARS-CoV Urbani / Binding of serum 6 to looped/cyclic peptide (PEPSCAN-ELISA) / Binding of serum 37 to looped/cyclic peptide (PEPSCAN-ELISA) / Binding of serum 37 to looped/cyclic peptides of protein X1 of SARS-CoV Urbani / Binding of serum 6 to linear peptides of protein X2 / Binding of serum 37 to linear peptides of protein X2 / Binding of serum 37 to looped/cyclic peptides of protein X2 of SARS-CoV Urbani / Binding of serum 6 to linear peptides of protein M of SARS-CoV Urbani / Binding of serum 37 to linear peptides of protein M of SARS-CoV Urbani / Binding of serum 6 to looped/cyclic peptides of protein M of SARS-CoV Urbani / Binding of serum 37 to looped/cyclic peptides of protein M of SARS-CoV Urbani / Binding of serum 6 to linear peptides of protein X3 of SARS-CoV Urbani / Binding of serum 37 to linear peptides of protein X3 of SARS-CoV Urbani / Binding of serum 37 to looped/cyclic peptides of protein X3 of SARS-CoV Urbani / Binding of serum 6 to linear peptides of protein X4 of SARS-CoV Urbani / Binding of serum 37 to linear peptides of protein X4 of SARS-CoV Urbani / Binding of serum 37 to looped/cyclic peptides of protein X4 of SARS-CoV Urbani / Binding of serum 6 to linear peptides of protein X5 of SARS-CoV Urbani / Binding of serum 37 to linear peptides of protein X5 of SARS-CoV Urbani / Binding of serum 37 to looped/cyclic peptides of protein X5 of SARS-CoV Urbani / Binding of serum 6 to linear peptides of protein N of SARS-CoV Urbani / Binding of serum 37 to linear peptides of protein N of SARS-CoV Urbani / Binding of serum 6 to linear peptide (PEPSCAN-ELISA) / Binding of serum 1a to looped/cyclic peptides of protein N of SARS-CoV Urbani / Binding of serum 1b to looped/cyclic peptides of protein N of SARS-CoV Urbani / Binding of serum 2 to looped/cyclic peptides of protein N of SARS-CoV Urbani / Binding of serum 6 to looped/cyclic peptides of protein N of SARS-CoV Urbani / Binding of serum 37 to looped/cyclic peptides of protein N of SARS-CoV Urbani / Binding of serum 62 to looped/cyclic peptides of protein N of SARS-CoV Urbani / Binding of serum London to looped/cyclic peptides of protein N of SARS-CoV Urbani / Binding of serum SARS-green to looped/cyclic peptides of protein N of SARS-CoV Urbani: unit not given here
[2] = test system: control sera (pooled serum of ten healthy LUMC hospital workers; commercial negative donor pooled serum from the Dutch bloodbank); format: binding, human; set-up: Binding of Control serum LUMC to linear peptides / Binding of Control serum Blood-bank to linear peptides / Binding of Control serum LUMC to looped peptides / Binding of Control Serum Blood-Bank to Looped peptides / Binding of Control serum LUMC to linear peptides of the protein M of SARS-CoV Urbani / Binding of Control serum Blood-bank to linear peptides of the protein M of SARS-CoV Urbani / Binding of Control serum LUMC to looped peptides of the protein M of SARS-CoV Urbani / Binding of Control Serum Blood-Bank to Looped peptides of the protein M of SARS-CoV Urbani: unit not given here
[3] = test system: rabbit serum obtained by immunizing a rabbit with the SARS-CoV strain Frankfurt 1; format: binding; set-up: Binding of a rabbit serum to linear peptides / Binding of a rabbit serum to looped peptides / Rabbit serum linear peptides / Rabbit serum looped peptides / Binding of a rabbit serum to linear peptides of protein N of SARS-CoV Urbani (Rabbit serum linear peptides) / Binding of a rabbit serum to looped/cyclic peptides of protein N of SARS-CoV Urbani (Rabbit serum looped peptides): unit not given here
[4] = test system: recombinant human anti-SARS-CoV antibody 03-018; format: binding; set-up: Binding of antibody 03-018 to linear peptides of the N protein of SARS-CoV Urbani / Binding of antibody 03-018 to looped/cyclic peptides of the N protein of SARS-CoV Urbani: unit not given here

## AFGRRGPEQTQGNFG
[1]
  Binding of serum 1a to linear peptide (PEPSCAN-ELISA): 0.2
  Binding of serum 1a to looped/cyclic peptides of protein N of SARS-CoV Urbani: 0.3
  Binding of serum 1b to linear peptide (PEPSCAN-ELISA): 0.1
  Binding of serum 1b to looped/cyclic peptides of protein N of SARS-CoV Urbani: 0.1
  Binding of serum 2 to linear peptide (PEPSCAN-ELISA): 0.2
  Binding of serum 2 to looped/cyclic peptides of protein N of SARS-CoV Urbani: 0.3
  Binding of serum 6 to linear peptide (PEPSCAN-ELISA): 0.3
  Binding of serum 6 to looped/cyclic peptides of protein N of SARS-CoV Urbani: 0.1
  Binding of serum 37 to linear peptide (PEPSCAN-ELISA): 0.5
  Binding of serum 37 to looped/cyclic peptides of protein N of SARS-CoV Urbani: 0.3
  Binding of serum 62 to linear peptide (PEPSCAN-ELISA): 0.7
  Binding of serum 62 to looped/cyclic peptides of protein N of SARS-CoV Urbani: 0.3
  Binding of serum London to linear peptide (PEPSCAN-ELISA): 0.8
  Binding of serum London to looped/cyclic peptides of protein N of SARS-CoV Urbani: 0.3
  Binding of serum SARS-green to linear peptide (PEPSCAN-ELISA): 0.4
  Binding of serum SARS-green to looped/cyclic peptides of protein N of SARS-CoV Urbani: 0.1
  Binding of serum SARS-yellow to linear peptide (PEPSCAN-ELISA): 0.6
  Binding of serum SARS-yellow to looped/cyclic peptides of protein N of SARS-CoV Urbani: 0.1
[2]
  Binding of Control Serum Blood-Bank to Looped peptides: 0.4
  Binding of Control serum Blood-bank to linear peptides: 0.6
  Binding of Control serum LUMC to linear peptides: 0.5
  Binding of Control serum LUMC to looped peptides: 0.3
[3]
  Binding of a rabbit serum to linear peptides of protein N of SARS-CoV Urbani (Rabbit serum linear peptides): 0.1
  Binding of a rabbit serum to looped/cyclic peptides of protein N of SARS-CoV Urbani (Rabbit serum looped peptides): 0.0
[4]
  Binding of antibody 03-018 to linear peptides of the N protein of SARS-CoV Urbani: 0.1
  Binding of antibody 03-018 to looped/cyclic peptides of the N protein of SARS-CoV Urbani: 0.2

## RWYFYYLGTGPEASL
[1]
  Binding of serum 1a to linear peptides of protein N of SARS-CoV Urbani: 0.3
  Binding of serum 1a to looped/cyclic peptides of protein N of SARS-CoV Urbani: 0.4
  Binding of serum 1b to linear peptides of protein N of SARS-CoV Urbani: 0.2
  Binding of serum 1b to looped/cyclic peptides of protein N of SARS-CoV Urbani: 0.4
  Binding of serum 2 to linear peptides of protein N of SARS-CoV Urbani: 0.2
  Binding of serum 2 to looped/cyclic peptides of protein N of SARS-CoV Urbani: 0.5
  Binding of serum 6 to linear peptides of protein N of SARS-CoV Urbani: 0.2
  Binding of serum 6 to looped/cyclic peptides of protein N of SARS-CoV Urbani: 0.3
  Binding of serum 37 to linear peptides of protein N of SARS-CoV Urbani: 0.8
  Binding of serum 37 to looped/cyclic peptides of protein N of SARS-CoV Urbani: 1.1
  Binding of serum 62 to linear peptides of protein N of SARS-CoV Urbani: 0.8
  Binding of serum 62 to looped/cyclic peptides of protein N of SARS-CoV Urbani: 0.9
  Binding of serum London to linear peptides of protein N of SARS-CoV Urbani: 0.4
  Binding of serum London to looped/cyclic peptides of protein N of SARS-CoV Urbani: 0.5
  Binding of serum SARS-green to linear peptides of protein N of SARS-CoV Urbani: 0.3
  Binding of serum SARS-green to looped/cyclic peptides of protein N of SARS-CoV Urbani: 0.8
  Binding of serum SARS-yellow to linear peptides of protein N of SARS-CoV Urbani: 0.6
  Binding of serum SARS-yellow to looped/cyclic peptides of protein N of SARS-CoV Urbani: 0.7
[2]
  Binding of Control Serum Blood-Bank to Looped peptides: 0.7
  Binding of Control serum Blood-bank to linear peptides: 0.6
  Binding of Control serum LUMC to linear peptides: 0.7
  Binding of Control serum LUMC to looped peptides: 0.8
[3]
  Binding of a rabbit serum to linear peptides of protein N of SARS-CoV Urbani (Rabbit serum linear peptides): 0.2
  Binding of a rabbit serum to looped/cyclic peptides of protein N of SARS-CoV Urbani (Rabbit serum looped peptides): 0.6
[4]
  Binding of antibody 03-018 to linear peptides of the N protein of SARS-CoV Urbani: 0.1
  Binding of antibody 03-018 to looped/cyclic peptides of the N protein of SARS-CoV Urbani: 0.2

## VILLNKHIDAYKTFP
[1]
  Binding of serum 1a to linear peptides of protein N of SARS-CoV Urbani: 0.2
  Binding of serum 1a to looped/cyclic peptides of protein N of SARS-CoV Urbani: 0.3
  Binding of serum 1b to linear peptides of protein N of SARS-CoV Urbani: 0.1
  Binding of serum 1b to looped/cyclic peptides of protein N of SARS-CoV Urbani: 0.1
  Binding of serum 2 to linear peptides of protein N of SARS-CoV Urbani: 0.2
  Binding of serum 2 to looped/cyclic peptides of protein N of SARS-CoV Urbani: 0.3
  Binding of serum 6 to linear peptides of protein N of SARS-CoV Urbani: 0.2
  Binding of serum 6 to looped/cyclic peptides of protein N of SARS-CoV Urbani: 0.2
  Binding of serum 37 to linear peptides of protein N of SARS-CoV Urbani: 0.7
  Binding of serum 37 to looped/cyclic peptides of protein N of SARS-CoV Urbani: 0.5
  Binding of serum 62 to linear peptides of protein N of SARS-CoV Urbani: 0.7
  Binding of serum 62 to looped/cyclic peptides of protein N of SARS-CoV Urbani: 0.4
  Binding of serum London to linear peptides of protein N of SARS-CoV Urbani: 0.5
  Binding of serum London to looped/cyclic peptides of protein N of SARS-CoV Urbani: 0.4
  Binding of serum SARS-green to linear peptides of protein N of SARS-CoV Urbani: 0.4
  Binding of serum SARS-green to looped/cyclic peptides of protein N of SARS-CoV Urbani: 0.2
  Binding of serum SARS-yellow to linear peptides of protein N of SARS-CoV Urbani: 0.5
  Binding of serum SARS-yellow to looped/cyclic peptides of protein N of SARS-CoV Urbani: 0.3
[2]
  Control Serum Blood-Bank Looped peptides: 0.5
  Control serum Blood-bank linear peptides: 0.7
  Control serum LUMC linear peptides: 0.8
  Control serum LUMC looped peptides: 0.4
[3]
  Binding of a rabbit serum to linear peptides of protein N of SARS-CoV Urbani (Rabbit serum linear peptides): 0.1
  Binding of a rabbit serum to looped/cyclic peptides of protein N of SARS-CoV Urbani (Rabbit serum looped peptides): 0.4
[4]
  Binding of antibody 03-018 to linear peptides of the N protein of SARS-CoV Urbani: 0.1
  Binding of antibody 03-018 to looped/cyclic peptides of the N protein of SARS-CoV Urbani: 0.2

## GTDYKHWPQIAQFAP
[1]
  Binding of serum 1a to linear peptides of protein N of SARS-CoV Urbani: 0.3
  Binding of serum 1a to looped/cyclic peptides of protein N of SARS-CoV Urbani: 0.5
  Binding of serum 1b to linear peptides of protein N of SARS-CoV Urbani: 0.1
  Binding of serum 1b to looped/cyclic peptides of protein N of SARS-CoV Urbani: 0.3
  Binding of serum 2 to linear peptides of protein N of SARS-CoV Urbani: 0.2
  Binding of serum 2 to looped/cyclic peptides of protein N of SARS-CoV Urbani: 0.5
  Binding of serum 6 to linear peptides of protein N of SARS-CoV Urbani: 0.2
  Binding of serum 6 to looped/cyclic peptides of protein N of SARS-CoV Urbani: 0.3
  Binding of serum 37 to linear peptides of protein N of SARS-CoV Urbani: 0.7
  Binding of serum 37 to looped/cyclic peptides of protein N of SARS-CoV Urbani: 0.7
  Binding of serum 62 to linear peptides of protein N of SARS-CoV Urbani: 0.8
  Binding of serum 62 to looped/cyclic peptides of protein N of SARS-CoV Urbani: 0.7
  Binding of serum London to linear peptides of protein N of SARS-CoV Urbani: 0.6
  Binding of serum London to looped/cyclic peptides of protein N of SARS-CoV Urbani: 0.5
  Binding of serum SARS-green to linear peptides of protein N of SARS-CoV Urbani: 0.6
  Binding of serum SARS-yellow to linear peptides of protein N of SARS-CoV Urbani: 0.7
  Binding of serum SARS-yellow to looped/cyclic peptides of protein N of SARS-CoV Urbani: 0.7
[2]
  Control Serum Blood-Bank Looped peptides: 0.8
  Control serum Blood-bank linear peptides: 0.8
  Control serum LUMC linear peptides: 0.6
  Control serum LUMC looped peptides: 0.7
[3]
  Binding of a rabbit serum to linear peptides of protein N of SARS-CoV Urbani (Rabbit serum linear peptides): 0.2
  Binding of a rabbit serum to looped/cyclic peptides of protein N of SARS-CoV Urbani (Rabbit serum looped peptides): 0.5
[4]
  Binding of antibody 03-018 to linear peptides of the N protein of SARS-CoV Urbani: 0.1
  Binding of antibody 03-018 to looped/cyclic peptides of the N protein of SARS-CoV Urbani: 0.2
